Patent US20240173333A1, “Treating Alagille Syndrome (ALGS)” (priority 2022, published 2024)
“And” between values parts separate entries of the source, which are not always exact repeats. Equal entries are not always repeated. “Also recorded” adds a separate entry of the source. Marks after values point to notes of the source that are not given here.

Assays:
Assay type in all cases: in vivo, human
[1] = tested on: patients with Alagille syndrome (ALGS); experiment: ASSERT: global impression of change (CGIC, CaGIC, PGIC) and exit survey; settings: week 24
Procedure: FIG. 27 is a table showing global impressions of change (GIC) over time. GIC items are assessed on a 7-point scale: 1=very much better; 2=much/moderately better; 3=a little better; 4=no change; 5=a little worse; 6=much/moderately worse; 7=very much worse. Changes based on the GIC were analyzed using a proportional odds model with treatment and baseline GIS scores as covariates considering three categories (better, no change, worse). Better includes “very much better,” “much better,” and “a little better,” and worse includes “a little worse,” “much worse,” and “very much worse.” CaGIC=Caregiver Global Impression of Change. CGIC=Clinician Global Impression of Change. PGIC=Patient Global Impression of Change. Global Impression of Change and Global Impression of Symptom Measures. Patients (≥8 years of age), caregivers, and clinicians completed global impression of change (GIC) measures (patient global impression of change (PGIC), caregiver global impression of change (CaGIC), and clinical global impression of change (CGIC)) and the global impression of symptoms (GIS) measures (patient global impression of symptoms (PGIS), caregiver global impression of symptoms (CaGIS), clinical global impression of symptoms (CGIS)) at randomization (Study Day 1; PGIS only), Week 4, 12, and 24/EOT. The GIC items assessed changes in itch (patient version), scratching (caregiver and clinician versions), and sleep (all versions) since starting the study drug. The GIS items assessed itch (patient version), scratching (caregiver and clinician versions), and sleep (all versions) in the past week. Caregivers and clinicians completed the GIC and GIS for all patients; those patients ≥8 years of age completed the patient version.

[2] = tested on: patients with Alagille syndrome (ALGS); experiment: ASSERT-EXT open-label extension: safety, TEAEs
Procedure: ASSERT-EXT is a Phase 3, multi-center, open-label extension study designed to evaluate the long-term safety and efficacy of 120 μg/kg/day odevixibat in relieving pruritus in patients with ALGS. Patients who participated in the ASSERT trial (see Example 1) and met eligibility criteria for the ASSERT trial were eligible to participate. The duration of the treatment period is 72 weeks, followed by a 4-week Safety Follow-up Period. Clinic visits occur every 4 to 12 weeks. Patients who wish to continue receiving odevixibat after 72 weeks will have the opportunity to remain on treatment in an optional extension period with visits every 16 weeks until the drug is commercially available, provided continued use is supported by the risk-benefit profile, the patient has not been previously withdrawn or discontinued from the study, and the study is not terminated by the Sponsor. The 4-week Safety Follow-up Period will not occur for those who remain on treatment in the optional extension period.
Day 1 coincided with Week 24 in the ASSERT trial; however, if this was not possible due to logistic issues, patients enrolled in the ASSERT-EXT trial within 28 days of completion of the ASSERT trial. All patients in the ASSERT-EXT trial receive odevixibat 120 μg/kg/day. Two groups were analyzed up to an interim cut-off date of Sep. 9, 2022: treatment-naïve patients who received placebo in ASSERT (i.e., “placebo-odevixibat”) and patients who received odevixibat in ASSERT (i.e., “odevixibat-odevixibat”).
Safety Analysis. The primary safety analysis for this study included the incidence of total treatment emergent AEs (TEAEs) and TEAEs categorized by causality, severity, and seriousness assessments made by the investigator. Trends in safety were also evaluated for the following assessments: Physical examinations; Concomitant medications; Vital signs; Laboratory test results (including clinical chemistry, hematology, urinalysis, AFP, vitamins A, E, and 25-hydroxy vitamin D, and INR); Liver ultrasound and elastography (where available); and Discontinuations due to Aes.

[3] = tested on: patients with Alagille syndrome (ALGS); experiment: ASSERT: fat-soluble vitamin levels, INR and related TEAEs
Procedure: Vitamins A, D, E, and international normalized ratio (INR; surrogate for vitamin K) were measured throughout the study. Vitamins A, D, and E were measured at screening and randomization, week 12, and week 24. International normalized ratio (INR; surrogate for vitamin K) was measured at all visits. The following measures were determined: (i) percentage of patients with FSV insufficiency at baseline and week 24, and (ii) shifts from baseline to high or low post-baseline FSV values relative to normal ranges. Treatment-emergent adverse events (TEAEs) of FSV deficiency, TEAEs resulting from new or worsening FSV deficiency refractory to clinically recommended vitamin supplementation, and TEAEs represented any possible sequelae of FSV deficiency were evaluated.

CCCCC1(CCCC)CN(c2ccccc2)c2cc(SC)c(OCC(=O)N[C@@H](C(=O)N[C@@H](CC)C(=O)O)c3ccc(O)cc3)cc2S(=O)(=O)N1 [odevixibat, 1,1-dioxo-3,3-dibutyl-5-phenyl-7-methylthio-8-(N-{(R)-α-[N-((S)-1-carboxypropyl)carbamoyl]-4-hydroxybenzyl}carbamoylmethoxy)-2,3,4,5-tetrahydro-1,2,5-benzothiadiazepine]
CGIC for scratching, percentage of clinician responses (improved) [1]: 80%
CGIC for sleep, percentage of clinician responses (improved) [1]: 74%
CaGIC for scratching, percentage of caregiver responses (improved pruritus) [1]: 87% and 88%
CaGIC for sleep, percentage of caregiver responses (improved sleep) [1]: 78%
PGIC for itching, percentage of patient responses (improved) ([1]; patients ≥8 years): 80%
PGIC for sleep, percentage of patient responses (improved) ([1]; patients ≥8 years): 70%
odds of improvement in sleep, relative to placebo (CaGIC) ([1]; proportional odds model): nine times higher
odds of improvement versus no change or worsening in scratching, relative to placebo (CaGIC) ([1]; proportional odds model): 15 times
Serious TEAEs ([2]; 2/49 patients, interim cut-off): 4%
drug-related serious TEAEs or TEAEs leading to discontinuation or dose reduction ([2]; interim cut-off): No drug-related serious TEAEs or TEAEs leading to discontinuation or dose reduction
incidence of drug-related diarrhea ([2]; n=49, interim cut-off): 4%
incidence of treatment-emergent diarrhea ([2]; n=49, interim cut-off): 16%
tolerability ([2]; treatment for ≥24 weeks): well tolerated
shifts to low levels of vitamin E in patients with normal or high baseline levels ([3]; 4/29): 14%
shifts to low vitamin D levels in patients with normal or high baseline levels ([3]; 8/16): 50%
shifts from low or normal INR at baseline to high INR (low vitamin K) ([3]; 12/30): 40%
TEAE related to FSV levels: decreased vitamin A ([3]; 24 weeks): 1 n
TEAE related to FSV levels: decreased vitamin E ([3]; 24 weeks): 1 n
TEAE related to FSV levels: increased INR ([3]; 24 weeks): 1 n
incidence of INR increased (possible sequela of FSV deficiency) ([3]; 24 weeks): 3%
incidence of haematoma (possible sequela of FSV deficiency) ([3]; 24 weeks): 9%
patients shifted to high INR based on the normal range ([3]; 24 weeks): 12 patients
patients who shifted to high post-baseline INR and had TEAEs of potential sequelae of vitamin K deficiency ([3]; 24 weeks): 2 n
patients with clinically meaningful INR shifts (INR >1.2) ([3]; 24 weeks): 6 patients
shifts to low vitamin D levels ([3]; 24 weeks): 8 patients
shifts to low vitamin E levels ([3]; 24 weeks): 4 patients
incidence of possible sequelae of fat-soluble vitamin deficiency ([3]; 24 weeks, n=35): 14%
patients with TEAEs related to FSV levels (any FSV deficiency-related TEAE) ([3]; 24 weeks, n=35): 9%
fat-soluble vitamin deficiency TEAE refractory to clinically recommended vitamin supplementation ([3]; 24 weeks, vitamin D deficiency): 1 patients
changes from baseline in mean vitamin (FSV) levels or INR ([3]; baseline to last assessment): No clinically meaningful changes; also recorded: no clinically relevant changes
Vitamin A, shifts to low ([3]; baseline to lowest post-baseline value): 0/34
patients shifted to low levels of vitamin A ([3]; during the study): No patients
Any FSV deficiency-related TEAE ([3]; n=35): 3 (9)^a n (%)
Any potential sequelae events ([3]; n=35): 5 (14) n (%)
FSV deficiency-related TEAE: INR increased ([3]; n=35): 1 (3) n (%)
FSV deficiency-related TEAE: Vitamin A decreased ([3]; n=35): 1 (3) n (%)
FSV deficiency-related TEAE: Vitamin E decreased ([3]; n=35): 1 (3) n (%)
Potential sequelae: Coagulopathy ([3]; n=35): 1 (3) n (%)
Potential sequelae: Contusion ([3]; n=35): 1 (3) n (%)
Potential sequelae: Epistaxis ([3]; n=35): 0 n (%)
Potential sequelae: Hematemesis ([3]; n=35): 1 (3) n (%)
Potential sequelae: Hematoma ([3]; n=35): 3 (9) n (%)
Potential sequelae: INR increased ([3]; n=35): 1 (3) n (%)
FSV deficiency-related TEAE: Vitamin D deficiency ([3]; n=35, refractory to supplementation): 1 (3)^b n (%)
patients with FSV deficiency TEAE refractory to clinically recommended vitamin supplementation ([3]; of 35 patients): 3%
